Experimental data as given in patent US10604523B2, “1-aryl-4-methyl-[1,2,4]triazolo[4,3-a]quinoxaline derivatives” (Janssen Pharmaceutica NV, priority 2011, dated 2020).
pIC50: −log10 of the molar value. Like-named read-outs stand apart in the source and are kept apart here.

Key:
[1] = molecular target: T1, Human recombinant PDE2A (hPDE2A) (Homo sapiens, UniProt O00408); assay: In vitro assay PDE2A (SPA, 3H-cGMP); type: biochemical; settings: for IC50: read-out: pIC50 PDE2 (converted)
T1 construct: made in house; host or cells: Sf9 insect cells (baculovirus)
T1 sequence (O00408 whole entry): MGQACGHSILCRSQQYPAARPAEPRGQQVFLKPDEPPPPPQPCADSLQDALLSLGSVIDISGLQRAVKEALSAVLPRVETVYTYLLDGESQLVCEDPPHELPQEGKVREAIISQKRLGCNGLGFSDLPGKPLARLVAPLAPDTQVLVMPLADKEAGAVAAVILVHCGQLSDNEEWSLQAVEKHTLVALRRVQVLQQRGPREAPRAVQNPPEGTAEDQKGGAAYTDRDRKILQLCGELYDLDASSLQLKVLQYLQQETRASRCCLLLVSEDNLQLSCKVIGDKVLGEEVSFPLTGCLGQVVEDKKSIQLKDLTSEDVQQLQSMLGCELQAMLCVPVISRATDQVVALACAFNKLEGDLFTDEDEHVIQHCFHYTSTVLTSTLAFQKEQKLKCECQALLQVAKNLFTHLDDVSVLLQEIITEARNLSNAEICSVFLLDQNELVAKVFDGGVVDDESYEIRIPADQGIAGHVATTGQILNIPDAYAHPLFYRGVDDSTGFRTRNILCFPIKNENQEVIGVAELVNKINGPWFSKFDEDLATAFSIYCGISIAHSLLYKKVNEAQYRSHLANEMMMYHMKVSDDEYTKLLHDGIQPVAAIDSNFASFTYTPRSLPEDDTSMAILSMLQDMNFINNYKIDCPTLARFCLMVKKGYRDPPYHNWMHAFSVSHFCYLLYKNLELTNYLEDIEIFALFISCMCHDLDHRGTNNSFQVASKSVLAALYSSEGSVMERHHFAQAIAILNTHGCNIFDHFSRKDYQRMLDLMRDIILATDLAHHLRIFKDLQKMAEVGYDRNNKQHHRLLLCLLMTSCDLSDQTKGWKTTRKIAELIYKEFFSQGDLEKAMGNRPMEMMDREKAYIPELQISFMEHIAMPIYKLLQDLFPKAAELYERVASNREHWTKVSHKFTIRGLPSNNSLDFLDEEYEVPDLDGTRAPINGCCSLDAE
Description: Tested compounds were dissolved and diluted in 100% DMSO to a concentration 100 fold of the final concentration in the assay. Compound dilutions (0.4 μl) were added in 384 well plates to 20 μl of incubation buffer (50 mM Tris pH 7.8, 8.3 mM MgCl2, 1.7 mM EGTA). 10 μl of hPDE2A enzyme in incubation buffer was added and the reaction was started by addition of 10 μl substrate to a final concentration of 10 μM cGMP and 0.01 μCi ^3H-cGMP. The reaction was incubated for 45 minutes at room temperature. […] After sedimentation of the beads during 30 minutes the radioactivity was measured in a Perkin Elmer Topcount scintillation counter and results were expressed as cpm. For blanc values the enzyme was omitted from the reaction and replaced by incubation buffer. Control values were obtained by addition of a final concentration of 1% DMSO instead of compound.

[2] = system: Apomorphine-induced agitation; assay: Reversal of Apomorphine-induced Agitation in Rats (APO); type: in vivo, rat; settings: for PO Max effect (cumulative agitation score over 60 min) / SC Max effect (cumulative agitation score over 60 min): apomorphine 1.0 mg/kg i.v.; for PO LAD (lowest active dose) / SC LAD (lowest active dose): lowest dose at which ≥67% tested animals respond; for SC Dose at max effect / SC Max effect (cumulative agitation score over 60 min) / SC LAD (lowest active dose): subcutaneous route
Description: Apomorphine (1.0 mg/kg, i.v.)-induced agitation was scored every 5 min over the first hour after injection of apomorphine. The score system was: (3) pronounced, (2) moderate, (1) slight, and (0) absent. […] For the present purpose, the cumulative agitation score over the whole 60-min observation period was used as a measure to describe the maximum effect (Max effect).

[3] = molecular target: T2, Rat recombinant PDE10A (rPDE10A2) (Rattus norvegicus, UniProt Q9QYJ6); assay: In vitro assay PDE10A (SPA, 3H-cAMP); type: biochemical; settings: for IC50: read-out: PIC50 PDE10 (converted)
T2 construct: made in house; host or cells: Sf9 insect cells (baculovirus)
T2 sequence (Q9QYJ6 1-794): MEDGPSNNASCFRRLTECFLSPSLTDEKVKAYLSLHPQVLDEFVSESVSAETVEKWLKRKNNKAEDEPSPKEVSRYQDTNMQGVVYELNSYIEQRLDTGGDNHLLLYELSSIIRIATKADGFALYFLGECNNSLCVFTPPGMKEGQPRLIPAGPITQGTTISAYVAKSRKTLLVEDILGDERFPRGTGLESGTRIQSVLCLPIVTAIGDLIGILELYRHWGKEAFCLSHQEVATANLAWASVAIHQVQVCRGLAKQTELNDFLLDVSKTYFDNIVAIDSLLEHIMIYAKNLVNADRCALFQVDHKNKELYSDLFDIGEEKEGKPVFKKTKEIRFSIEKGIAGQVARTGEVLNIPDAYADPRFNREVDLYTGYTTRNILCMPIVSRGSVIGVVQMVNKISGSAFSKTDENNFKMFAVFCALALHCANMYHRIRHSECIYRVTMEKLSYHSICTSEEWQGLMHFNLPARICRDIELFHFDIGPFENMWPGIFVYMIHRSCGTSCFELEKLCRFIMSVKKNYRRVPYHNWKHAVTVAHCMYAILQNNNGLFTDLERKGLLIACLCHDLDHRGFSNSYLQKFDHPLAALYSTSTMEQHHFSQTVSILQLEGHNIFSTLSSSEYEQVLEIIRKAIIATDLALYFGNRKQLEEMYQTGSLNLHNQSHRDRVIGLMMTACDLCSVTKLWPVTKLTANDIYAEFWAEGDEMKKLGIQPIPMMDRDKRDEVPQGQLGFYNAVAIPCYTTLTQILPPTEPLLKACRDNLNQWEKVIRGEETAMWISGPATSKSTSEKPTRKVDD

| Structure (SMILES) | IC50 [1] [nM] | IC50 [3] [nM] | IC50 ([3]; -log IC50 expressed in mol/L, rPDE10A2, 60 nM cAMP) [nM] | PO Dose at Max Effect [2] [mg/kg] | PO Max effect (cumulative agitation score over 60 min) [2] | PO LAD (lowest active dose) [2] [mg/kg] | SC Dose at max effect [2] [mg/kg] | SC Max effect (cumulative agitation score over 60 min) [2] | SC LAD (lowest active dose) [2] [mg/kg] | pIC50 [1] | pIC50 [3] |
| --- | --- | --- | --- | --- | --- | --- | --- | --- | --- | --- | --- |
| Cc1nc2ccc(CN3CCOC(F)(C(F)(F)F)C3)cc2n2c(-c3ccccc3Cl)nnc12 (stereo not drawn) [Compound B-114] | 24.5 | 105 | – | 10 | 24 | > 10 | – | – | – | – | – |
| Cc1nc2cc(OCCc3ccccn3)ccc2n2c(-c3ccccc3Cl)nnc12 [Compound B-139] | 34.7 | 63.1 | – | 10 | 22 | > 10 | – | – | – | – | – |
| CCOc1ccc(Cl)c(-c2nnc3c(C)nc4ccc(CN5CCC(F)CC5)cc4n23)c1 [Compound B-140] | 34.7 | 282 | – | – | – | – | 10 | 24 | > 10 | – | – |
| COc1ccc(Cl)c(-c2nnc3c(C)nc4ccc(C(=O)NCc5ccccn5)cc4n23)c1 [Compound B-43] | 1.62 | 43.7 | – | 10 | 19 | 10 | – | – | – | – | – |
| COc1cc(CNC(=O)c2ccc3nc(C)c4nnc(-c5ccccc5Cl)n4c3c2)cc(OC)c1OC [Compound B-66] | 5.89 | 37.2 | – | 10 | 21 | > 10 | – | – | – | – | – |
| Cc1nc2ccc(C(=O)NCCc3ccccc3)cc2n2c(-c3ccccc3)nnc12 [Compound B-54] | 3.47 | 93.3 | – | 2.5 | 22 | > 2.5 | – | – | – | – | – |
| CCOc1ccc(Cl)c(-c2nnc3c(C)nc4ccc(CN5CCC(O)CC5)cc4n23)c1 [Compound B-128] | 28.8 | 229 | – | – | – | – | 10 | 21 | > 10 | – | – |
| Cc1nc2ccc(CN3CCOC(CO)C3)cc2n2c(-c3ccccc3Cl)nnc12 (stereo not drawn) [Compound B-55] | – | – | – | – | – | – | 10 | 22 | > 10 | 8.46 | 7.97 |
| COc1ccc(Cl)c(-c2nnc3c(C)nc4ccc(CN5CCC(F)CC5)cc4n23)c1 [Compound B-97] | 14.1 | 77.6 | – | – | – | – | 10 | 19 | 10 | – | – |
| COc1cc(NC(=O)c2ccc3nc(C)c4nnc(-c5ccccc5Cl)n4c3c2)cc(OC)c1OC [Compound B-49] | 2.34 | 77.6 | – | 10 | 24 | > 10 | – | – | – | – | – |
| CCOc1ccc(Cl)c(-c2nnc3c(C)nc4ccc(CN5CCN(C)CC5)cc4n23)c1 [Compound B-145] | 40.7 | 240 | – | – | – | – | 10 | 22 | > 10 | – | – |
| CCCOc1ccc(Cl)c(-c2nnc3c(C)nc4ccc(CN5CCC(F)CC5)cc4n23)c1 [Compound B-135] | 30.2 | 589 | – | – | – | – | – | – | – | – | – |
| CCCCOc1cncc(-c2nnc3c(C)nc4ccc(Br)cc4n23)c1 [Compound B-7, 8-Bromo-1-(5-butoxypyridin-3-yl)-4-methyl[1,2,4]triazolo[4,3-a]quinoxaline] | 18.6 | 3390 | – | – | – | – | – | – | – | – | – |
| Cc1nc2ccc(CNC3CCC3)cc2n2c(-c3cncc(OCC4CC4)c3)nnc12 [Compound B-207] | 240 | > 10000 | – | – | – | – | – | – | – | – | – |
| CCNC(=O)c1ccc2nc(C)c3nnc(-c4ccc(C)nc4)n3c2c1 [Compound B-182] | 240 | 4170 | – | – | – | – | – | – | – | – | – |
| CCCCOc1ccc(Cl)c(-c2nnc3c(C)nc4ccc(OCCc5cccnc5)cc4n23)c1 [Compound B-130] | 28.8 | 977 | – | – | – | – | – | – | – | – | – |

Further lines, with some results ahead:

| IC50 [1] [nM] | IC50 [3] [nM] | IC50 ([3]; -log IC50 expressed in mol/L, rPDE10A2, 60 nM cAMP) [nM] | Structure (SMILES) | PO Dose at Max Effect [2] [mg/kg] | PO Max effect (cumulative agitation score over 60 min) [2] | PO LAD (lowest active dose) [2] [mg/kg] | SC Dose at max effect [2] [mg/kg] | SC Max effect (cumulative agitation score over 60 min) [2] | SC LAD (lowest active dose) [2] [mg/kg] | pIC50 [1] | pIC50 [3] |
| --- | --- | --- | --- | --- | --- | --- | --- | --- | --- | --- | --- |
| 0.724 | 25.1 | – | Cc1nc2ccc(C(=O)NCCc3ccccc3)cc2n2c(-c3ccccc3Cl)nnc12 [Compound B-38] | 2.5 | 19 | 2.5 | – | – | – | – | – |
| 6.76 | – | 67.6 | Cc1nc2ccc(CN3CCN(C)CC3)cc2n2c(-c3ccccc3Cl)nnc12 [Compound B-73] | – | – | – | 10 | 19 | 10 | – | – |
| 7.08 | 37.2 | – | C=Cc1ccc2nc(C)c3nnc(-c4ccccc4Cl)n3c2c1 [Compound B-14, 1-(2-Chlorophenyl)-8-ethenyl-4-methyl[1,2,4]triazolo[4,3-a]quinoxaline] | 10 | 21 | > 10 | – | – | – | – | – |
| 2.04 | 145 | – | Cc1nc2ccc(C(=O)NC3CCN(C)CC3)cc2n2c(-c3ccccc3Cl)nnc12 [Compound B-47] | – | – | – | 10 | 22 | > 10 | – | – |
| 8.71 | 16.2 | – | Cc1nc2ccc(OCCc3ccccn3)cc2n2c(-c3ccccc3Cl)nnc12 [Compound B-15, 1-(2-Chlorophenyl)-4-methyl-8-(2-pyridin-2-ylethoxy) [1,2,4]triazolo[4,3-a]quinoxaline] | – | – | – | 10 | 10 | 2.5 | – | – |
| 22.9 | 33.1 | – | Cc1nc2ccc(OCCN3CCOCC3)cc2n2c(-c3ccccc3Cl)nnc12 [Compound B-113] | – | – | – | 10 | 8 | 10 | – | – |
| 2.34 | 11 | – | Cc1nc2ccc(CNc3cccnc3)cc2n2c(-c3ccccc3Cl)nnc12 [Compound B-50] | – | – | – | 10 | 22 | > 10 | – | – |
| 4.9 | 23.4 | – | Cc1nc2ccc(CN3CCOC(CF)C3)cc2n2c(-c3ccccc3Cl)nnc12 (stereo not drawn) [Compound B-59] | – | – | – | 10 | 15 | 10 | – | – |
| 7.08 | 45.7 | – | Cc1nc2ccc(CNC3CCOCC3)cc2n2c(-c3ccccc3Cl)nnc12 [Compound B-76] | – | – | – | 10 | 16 | 10 | – | – |
| 5.5 | 20 | – | Cc1nc2ccc(CN3CCC(F)CC3)cc2n2c(-c3ccccc3Cl)nnc12 [Compound B-61] | – | – | – | 10 | 15 | 10 | – | – |
| 6.31 | 19.1 | – | Cc1nc2ccc(NCCN3CCOCC3)cc2n2c(-c3ccccc3Cl)nnc12 [Compound B-71] | – | – | – | 10 | 15 | 10 | – | – |
| 1.51 | 29.5 | – | Cc1nc2ccc(C(=O)NCCO)cc2n2c(-c3ccccc3Cl)nnc12 [Compound B-42] | 10 | 22 | > 10 | – | – | – | – | – |
| 60.3 | 191 | – | Cc1nc2cc(Br)ccc2n2c(-c3ccccc3Cl)nnc12 [Compound B-3b, 7-Bromo-1-(2-chlorophenyl)-4-methyl[1,2,4]triazolo[4,3-a]quinoxaline] | 10 | 22 | > 10 | – | – | – | – | – |
| 7.59 | 93.3 | – | CCNC(=O)c1ccc2nc(C)c3nnc(-c4ccccc4OC)n3c2c1 [Compound B-78] | 10 | 21 | > 10 | – | – | – | – | – |
| 27.5 | 355 | – | COc1cncc(-c2nnc3c(C)nc4ccc(Br)cc4n23)c1 [Compound B-124] | – | – | – | – | – | – | – | – |
| 44.7 | 87.1 | – | Cc1nc2ccc(NC3CCN(C)CC3)cc2n2c(-c3ccccc3Cl)nnc12 [Compound B-147] | – | – | – | – | – | – | – | – |
| 0.204 | 8.13 | – | Cc1nc2ccc(C(=O)NCc3cc(F)ccn3)cc2n2c(-c3ccccc3Cl)nnc12 [Compound B-31] | – | – | – | – | – | – | – | – |
| 69.2 | 2510 | – | COc1ccc2nc(C)c3nnc(-c4ccccc4OC(F)(F)F)n3c2c1 [Compound B-164] | – | – | – | – | – | – | – | – |
| 95.5 | 282 | – | Cc1nc2ccc(Br)cc2n2c(-c3cccc(Cl)c3Cl)nnc12 [Compound B-166] | – | – | – | – | – | – | – | – |
| 11 | 38 | – | COC1CCCN(Cc2ccc3nc(C)c4nnc(-c5ccccc5Cl)n4c3c2)C1 (stereo not drawn) [Compound B-86] | – | – | – | – | – | – | – | – |
